The source of these data is patent US20220339143A1, “TAK-925 FOR USE IN TREATING NARCOLEPSY” (Takeda Pharmaceutical Company Limited, priority 2019, published 2022).

For test [1], the system named is patients with NT1. Put plainly: PVT, multiple dose (Cohorts B1, B2). It is filed as in vivo, human. The note with it: 9 hours postdose.
Test [2] has as its system patients with NT1. Put plainly: Epworth Sleepiness Scale (ESS), multiple dose (Cohorts B1, B2). It counts as in vivo, human. The settings on record: for ESS Change from Baseline, Median / ESS Observed Value, Median: Day 7; for ESS Observed Value, Mean: Day 7 (placebo 16.3); for ESS Change from Baseline, Mean: Day 7 (placebo −0.3). As to the method: The purpose of the study was to evaluate the safety, tolerability, pharmacokinetics and pharmacodynamics of Compound A after multiple IV administration in patients with NT1. NT1 patients were evaluated in Cohort B1 and B2 (Table 19). Compound A or placebo were administered via IV infusion over 9 hours once daily for 7 days. A total of 13 patients with NT1 were treated with Compound A or placebo (4, 4, and 5 subjects in the placebo, Compound A 11 mg, and Compound A 44 mg groups, respectively). In this part, potential efficacy of Compound A was evaluated with MWT, ESS, KSS, night-time PSG (NPSG), cataplexy frequency assessment, and PGI-C as an exploratory PD assessment.

Structures are written as SMILES.

As to `COC(=O)N1CCC[C@H](NS(C)(=O)=O)[C@@H]1CO[C@H]1CC[C@@H](c2ccccc2)CC1` [Compound A, methyl (2R,3S)-3-((methylsulfonyl)amino)-2-(((cis-4-phenylcyclohexyl)oxy)methyl)piperidine-1-carboxylate], the “PVT, mean change from baseline in the number of lapses” value with patients with NT1 [1] (11 mg, Day 1 (placebo 10.5)) was −9.3; in the test on patients with NT1 [1] (11 mg, Day 7 (placebo 11.8)), −14.8; in the test with patients with NT1 [1] (44 mg, Day 1 (placebo 10.5)), −12.8; with patients with NT1 [1] (44 mg, Day 7 (placebo 11.8)) it was −12.8. Also, the “PVT, mean change from baseline in mean duration of the reciprocal 10% slowest reaction time (1/RT)” value was 0.88 in the test on patients with NT1 [1] (11 mg, Day 1 (placebo −0.49)); 1.27 in the test with patients with NT1 [1] (11 mg, Day 7 (placebo −0.73)); 0.51 with patients with NT1 [1] (44 mg, Day 1 (placebo −0.49)); −0.70 with patients with NT1 [1] (44 mg, Day 7 (placebo −0.73)). Moreover, the “ESS Change from Baseline, Median” value in the test on patients with NT1 [2] (11 mg) was −9.5; in the test on patients with NT1 [2] (44 mg), −18.0. Further, the “ESS Observed Value, Median” value was determined as 8.5 with patients with NT1 [2] (11 mg) and 0.0 in the test on patients with NT1 [2] (44 mg). Moreover, the “ESS Observed Value, Mean” value with patients with NT1 [2] (11 mg) amounted to 9.8; in the test on patients with NT1 [2] (44 mg), 0.0. Moreover, the “ESS Change from Baseline, Mean” value in the test on patients with NT1 [2] (11 mg) is on record as −8.3; in the test on patients with NT1 [2] (44 mg), −18.6.
